Source: patent US11752162B2, “Compounds and compositions for treating solid tumors by intratumoral administration” (Novartis AG, priority 2017, dated 2023)

Legend:
[1] = Mouse plasma PK, MC38 syngeneic tumor model, one week study; assay type: in vivo; conditions: female, C57BL/6, mouse, 100 ug, 100 μg Compound 15, single i.t. injection, MC38 tumor bearing mice
[2] = Wistar rat subcutaneous PK dose study (Example 9); assay type: in vivo; conditions: sc, 600 ug, 600 μg Compound 15 s.c., male Wistar rats, plasma
Procedure: The pharmacokinetic properties of Compound 15 were examined in naïve male Wistar rats following: • a) a single 200 μL subcutaneous (s.c.) injection of 600 μg of free form Compound 15 in 100 mM Tris buffer pH 7.4; • b) a single 200 μL subcutaneous (s.c.) injection of 50 μg of Compound 15 adsorbed to aluminum hydroxide at a 1:2.5 ratio (w/w) of Compound 15 to aluminum hydroxide-Suspension E described below; • c) a single 200 μL subcutaneous (s.c.) injection of 200 μg of Compound 15 adsorbed to aluminum hydroxide at a 1:2.5 ratio (w/w) of Compound 15 to aluminum hydroxide-Suspension D described below, and • d) a single 200 μL subcutaneous (s.c.) injection of 600 μg of Compound 15 adsorbed to aluminum hydroxide at a 1:2.5 ratio (w/w) of Compound 15 to aluminum hydroxide-Suspension C described below.
In this study, male Wistar rats (n=3 per group) were injected subcutaneously (s.c.) with 600 μg free Compound 15 or increasing doses of 50, 200 and 600 μg of Compound 15 absorbed to aluminum hydroxide. An injection volume of 200 μL of Suspension E, Suspension D and Suspension C was used to obtain 50, 200 and 600 μg of Compound 15 absorbed to aluminum hydroxide, respectively. The injection volume of 200 μL per rat was not normalized to body weights of the rats. As described above the Compound 15/aluminum hydroxide ratio for Suspension E, Suspension D and Suspension C was fixed at 1:2.5 w/w.
Blood samples (˜100 μL each) were taken serially via saphenous bleed from each rat until 96 h post dose (see Table 9 for sampling schedule). Blood samples were centrifuged to separate plasma and the plasma samples were frozen at −20° C. prior to analysis using LC/MS/MS (as described in Example 5) to obtain the systemic concentrations of Compound 15.

[3] = Extent of Compound 15 binding to Alhydrogel (% bound) in the suspension; assay type: physicochemical; conditions: for % bound (Compound 15 adsorbed to aluminum hydroxide): 100 mM Tris buffer (pH 7.4)
Procedure: In the preparation of the Compound 15/Alhydrogel® suspension used in the Examples herein, the stock suspension of Alhydrogel® was filtered by gravity filtration through a 100 μm cell strainer before mixing with stock solution comprising Compound 15. The resulting mixture/suspension was stirred for 5 minutes to allow Compound 15 to adsorb/bind to the aluminum of Alhydrogel®.
To determine the extent of Compound 15 binding to Alhydrogel® (i.e. % bound) in the Compound 15/Alhydrogel® suspension used in the Examples herein, aliquots of the suspension were centrifuged to pellet the bound Compound 15/Alhydrogel® (e.g. 21,000×g for 10 min), and the amount of free Compound 15 in the supernatant was analyzed by HPLC/UV or LC/MS/MS.

[4] = Binding efficiency of Compound 15 to aluminum-containing particles (Alhydrogel) in Tris buffer; assay type: physicochemical
From the text: The efficiency of binding of compounds of Formula (A) to aluminum-containing particles, as reflected in the percentage (%) bound to aluminum-containing particles, is a function of the (weight/weight) ratio of aluminum-containing particles to compound and to the final concentration (mg/mL) of compound in suspension with aluminum hydroxide. By way of example, the dependence of binding efficiency on the aluminum-containing particles to compound (w/w) ratio is shown in Table 8, where the final concentration of Compound 15 is fixed at 2 mg/mL and the amount of aluminum hydroxide is varied to obtain the desired ratio. The percentage of Compound 15 bound were obtained as described above in the “Materials and Method”, and the suspensions of Compound 15/Alhydrogel® were prepared in 20 mM Tris buffer (pH 7.4) as described above in “Compound 15/Alhydrogel® Suspensions”.
In addition, for (w/w) ratios of aluminum-containing particles to compound of 1.5:1 and below, the binding efficiency has an apparent pH dependence. The effect of pH on binding efficiency is seen in Table 10, where the binding efficiency of Compound 15 at either a ratio of aluminum hydroxide to Compound 15 (w/w) of 1.5:1 or 2:1 is given shown. The percentage of Compound bound was obtained as described above, although in Tris buffer at differing pH values. The suspensions of Compound 15/Alhydrogel® in Tris buffer at various were prepared as described above in “Compound 15/Alhydrogel® Suspensions”.

[5] = Compound 15 2 mg/mL, aluminum 0.2 mg/mL, ratio 0.1:1, 20 mM Tris pH 7.4
[6] = Compound 15 2 mg/mL, aluminum 4 mg/mL, ratio 2:1, 20 mM Tris pH 7.4

AUC(0-inf) [1]: 6220 ng·h/mL
Cmax [1]: 10600 ng/mL
Tmax [1]: 4.98 min
half-life ([1]; other: intra-tumoral (i.t.) injection): 159 min
AUC(0-inf) [2]: 2560 ng·h/mL
Cmax [2]: 3660 ng/mL
Tmax [2]: 15 min
half-life [2]: 126 min
% bound (Compound 15 adsorbed to aluminum hydroxide) ([3]; 50 μg dose formulation, 1:2.5 w/w ratio): 91%
% bound (Compound 15 adsorbed to aluminum hydroxide) ([3]; 200 μg dose formulation, 1:2.5 w/w ratio): 94%
% bound (Compound 15 adsorbed to aluminum hydroxide) ([3]; 600 μg dose formulation, 1:2.5 w/w ratio): 97%
% bound (Compound 15 adsorbed to aluminum hydroxide) ([3]; 50 kg/50 μg (so in the source) dose formulation, 1:20 w/w ratio): 98%
% bound (Compound 15 adsorbed to aluminum hydroxide) ([3]; 600 kg (so in the source) dose formulation, 1:1.7 w/w ratio): 98%
% bound (Compound 15/aluminum hydroxide) ([3]; fixed ratio of 1:1.5 w/w, A20 study formulation): 97%
Compound 15 % Bound [4, 5]: 12.5%
Compound 15 % Free [4, 5]: 87.5%
Compound 15 % Bound ([4]; Compound 15 2 mg/mL, aluminum 0.5 mg/mL, ratio 0.25:1, 20 mM Tris pH 7.4): 25.7%
Compound 15 % Free ([4]; Compound 15 2 mg/mL, aluminum 1 mg/mL, ratio 0.5:1, 20 mM Tris pH 7.4): 56.5%
Compound 15 % Bound [4, 6]: 99.7%
Compound 15 % Free [4, 6]: 0.3%
Compound 15 % Bound ([4]; aluminum hydroxide:Compound 15 ratio (w/w) 1.5:1, Tris buffer pH 8): 91.1%
Compound 15 % Bound ([4]; aluminum hydroxide:Compound 15 ratio (w/w) 2:1, Tris buffer pH 7.5): 99.7%
Structure (SMILES): Cc1cc(OCCOCCC(F)(F)P(=O)(O)O)ccc1CCc1cnc2c(N)nc3cc(CCC(=O)O)ccc3c2c1 [Compound 15, 3-(5-amino-2-(4-(2-(3,3-difluoro-3-phosphonopropoxy)ethoxy)-2-methylphenethyl)benzo[f][1,7]naphthyridin-8-yl)propanoic acid]
